System: myotonia induced by anthracene-9-carboxylic acid (9-AC) in Sprague-Dawley rats
Assay: Myotonia induction model by drug (9-AC) treatment, righting reflex test
Format: in vivo, rat
Parameters: Average Righting reflex time (TRR): unit not given here
Conditions: for Average Righting reflex time (TRR): 9-AC given 20 minutes later
Excerpt: The efficacy for myotonia of the compounds of the above Formula 1 can be confirmed by the use of known models. For example, the efficacy of the compounds of the above Formula 1 may be evaluated in a myotonia model caused by anthracene-9-carboxylic acid (9-AC). Anthracene-9-carboxylic acid can cause myotonic conditions by blocking the chloride channel-1 of muscle cells. Myotonic conditions are induced by intraperitoneal injection once to experimental animals (rats), and can be evaluated by measuring the righting reflex time. Righting reflex is a reflex behavior in which the animal's body returns from an abnormal position to a normal position, and the degree of myotonia can be evaluated by measurement of righting reflex behavior due to abnormality of muscle tension/relaxation after 9-AC treatment. Specifically, the degree of spasticity is evaluated by measuring the time that it takes for the four feet of the experimental animal to land normally when the experimental animal is turned upside down and the posture is straightened (time of righting reflex, TRR).
In the experimental animal model of myotonia induction by drug (9-AC) treatment, it was reported that the time to return to normal posture after righting reflex was delayed when measuring the rat's spasticity conditions using righting reflex (Desaphy et al., 2013, Neuropharmacology, 65: 21-27).
As an experimental model, Sprague-Dawley rats (350-400 g, 10 weeks old, a total of 36 males) were used (Orient Bio Inc.). The drug anthracene-9-carboxylic acid (9-AC) used to induce myotonia is a drug that inhibits chloride channel-1 of skeletal muscle cells and induces hyperexcitation of muscle cells. The control group (30% PEG300) or test compound was intraperitoneally administered to the rat once in each dose (15, 20 mg/kg). Test compounds were diluted in 30% PEG300 solution to a final dose of 5 ml/kg. After 20 minutes of administration of control group or test compound, 0.3% NaHCO3 solution containing 6 mg/ml of 9-AC was intraperitoneally administered by 10 ml/kg. After administration of 9-AC, righting reflex tests were performed at 30 minutes and 1 hour, respectively, and the time to return to normal posture (time of righting reflex, TRR) was measured.
Statistical analysis was used for the one-way ANOVA (1-way ANOVA) and Tukey's multiple comparison test, and outliers were excluded through the ROUT outlier analysis test (Q=1%) (in the 30-minute test, excluding each one in the control group and the 20 mg/kg treatment group; in the 1-hour test, excluding one in the 20 mg/kg treatment group). The results were derived from three repeated experiments.

NC(=O)O[C@@H](Cn1ncnn1)c1ccccc1Cl [Test compound, carbamic acid (R)-1-(2-chlorophenyl)-2-tetrazol-2-yl-ethyl ester]
Average Righting reflex time (TRR) (15 mg/kg intraperitoneal, measured 30 minutes after 9-AC, n = 9): 2.282 ± 0.304 | Average Righting reflex time (TRR) (15 mg/kg intraperitoneal, measured 1 hour after 9-AC, n = 9): 4.978 ± 0.944 | Average Righting reflex time (TRR) (20 mg/kg intraperitoneal, measured 30 minutes after 9-AC, n = 8): 1.85 ± 0.266 | Average Righting reflex time (TRR) (20 mg/kg intraperitoneal, measured 1 hour after 9-AC, n = 8): 2.515 ± 0.328 | Time to return to normal posture compared to the control group (statistical significance) (20 mg/kg, at both 30 minutes and 1 hour after 9-AC, P<0.05, one-way ANOVA and Tukey's test): significant time reduction effect | Time to return to normal posture compared to the control group in righting reflex test (15 and 20 mg/kg, 30 minutes and 1 hour after spasticity was induced): decrease in time to return to normal posture

— patent publication US11389429B2, “Use of carbamate compound for preventing, alleviating or treating myotonia” (SK BIOPHARMACEUTICALS CO., LTD., priority 2017, dated 2022)
